Common to all, as to type: biochemical
Assay [1] concerns the target T1, PFK (6-phosphofructokinase) (Thermus thermophilus, UniProt P21777).
T1 construct: gene pfkA; heat-treated lysate of recombinant E. coli; native form, untagged; Riken HB8 expression plasmid
Briefly: coupled assay, NAD+ reduction at […] nm. Conditions: 0.1 mM substrate, 0.2 mM ATP, 5 mM MgCl2, 0.5 mM MnCl2, pH 7.0, 50 °C.

The target of assay [2] is T2, Thermus lactate dehydrogenase (LDH) (Thermus thermophilus, UniProt Q5SJA1).
T2 construct: heat-treated (70 °C, 30 min) lysate of recombinant E. coli; native form, untagged
Nature of the assay: spectrophotometric NADH oxidation at […] nm. The note with it: 0.2 mM pyruvate, 0.2 mM NADH, pH 7.0, 50 °C; inhibitor.

For assay [3], the target named is T3, FBA (fructose-bisphosphate aldolase) (Thermus thermophilus, UniProt Q5SHF7).
T3 construct: gene TTHA1773; heat-treated lysate of recombinant E. coli; native form, untagged; Riken HB8 expression plasmid
T3 sequence (Q5SHF7 1-305): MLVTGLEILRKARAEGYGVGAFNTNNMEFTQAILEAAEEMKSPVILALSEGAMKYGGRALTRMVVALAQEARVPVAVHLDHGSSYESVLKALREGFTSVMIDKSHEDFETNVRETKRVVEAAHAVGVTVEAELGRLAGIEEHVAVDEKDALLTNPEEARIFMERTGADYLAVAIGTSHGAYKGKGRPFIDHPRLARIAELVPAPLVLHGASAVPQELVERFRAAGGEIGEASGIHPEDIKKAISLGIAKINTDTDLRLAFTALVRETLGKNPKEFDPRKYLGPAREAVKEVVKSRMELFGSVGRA
Briefly: coupled assay, NAD+ reduction at […] nm. Conditions: 0.1 mM substrate, 5 mM MgCl2, 0.5 mM MnCl2, pH 7.0, 50 °C.

Assay [4] deals with T4, malate/lactate dehydrogenase (MLDH) (Thermus thermophilus, UniProt Q53W84).
T4 construct: gene TTHB078; heat-treated lysate of recombinant E. coli; native form, untagged; Riken HB8 expression plasmid
Nature of the assay: NADH oxidation at […] nm. Conditions: 0.2 mM pyruvate, 0.2 mM NADH, 5 mM MgCl2, 0.5 mM MnCl2, pH 7.0, 50 °C.

T4 sequence (Q53W84 entry or part of it): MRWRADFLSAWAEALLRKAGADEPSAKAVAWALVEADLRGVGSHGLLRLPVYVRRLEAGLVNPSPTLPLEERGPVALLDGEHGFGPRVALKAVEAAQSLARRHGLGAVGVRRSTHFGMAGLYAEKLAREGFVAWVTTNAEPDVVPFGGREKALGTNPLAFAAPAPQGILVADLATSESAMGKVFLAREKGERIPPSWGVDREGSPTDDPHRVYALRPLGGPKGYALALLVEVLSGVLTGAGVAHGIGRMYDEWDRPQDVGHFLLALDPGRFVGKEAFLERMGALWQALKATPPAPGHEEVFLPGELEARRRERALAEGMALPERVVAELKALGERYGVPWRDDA
T1 sequence (P21777 whole entry): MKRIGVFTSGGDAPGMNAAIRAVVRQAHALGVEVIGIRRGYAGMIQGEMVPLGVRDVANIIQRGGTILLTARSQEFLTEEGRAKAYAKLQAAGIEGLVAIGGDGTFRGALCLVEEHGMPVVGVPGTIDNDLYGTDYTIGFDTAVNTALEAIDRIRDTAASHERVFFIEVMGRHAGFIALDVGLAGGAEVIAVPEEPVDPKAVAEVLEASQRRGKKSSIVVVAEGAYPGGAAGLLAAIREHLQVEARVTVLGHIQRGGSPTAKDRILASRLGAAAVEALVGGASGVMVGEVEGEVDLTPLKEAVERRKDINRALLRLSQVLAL
T2 sequence (Q5SJA1 whole entry): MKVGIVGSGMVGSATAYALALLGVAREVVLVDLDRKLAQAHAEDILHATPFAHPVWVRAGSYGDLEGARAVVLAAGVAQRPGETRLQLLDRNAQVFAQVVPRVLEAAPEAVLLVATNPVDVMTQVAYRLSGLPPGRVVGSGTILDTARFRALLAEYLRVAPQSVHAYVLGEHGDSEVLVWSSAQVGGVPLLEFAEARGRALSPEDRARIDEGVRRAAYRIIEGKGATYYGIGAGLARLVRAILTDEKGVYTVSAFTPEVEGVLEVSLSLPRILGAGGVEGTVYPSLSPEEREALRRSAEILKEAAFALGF

Regarding `Nc1ncnc2c1ncn2[C@@H]1O[C@H](COP(=O)(O)OP(=O)(O)OP(=O)(O)O)[C@@H](O)[C@H]1O` [ATP], the “coupled assay, NAD+ reduction at 340 nm” value in assay [1] is reported as “phosphorylation of F6P catalyzed by PFK”.

For the compound `NC(=O)c1ccc[n+]([C@@H]2O[C@H](COP(=O)(O)OP(=O)(O)OC[C@H]3O[C@@H](n4cnc5c(N)ncnc54)[C@H](O)[C@@H]3O)[C@@H](O)[C@H]2O)c1` [NAD^+], the “% decrease in activity at 1 mM” value in assay [2] came out at 95%.

For `O=P(O)(O)OC[C@H]1OC(O)(COP(=O)(O)O)[C@@H](O)[C@@H]1O` (stereo partly shown) [fructose-1,6-bisphosphate], the “coupled assay, NAD+ reduction at 340 nm” value in assay [3] is “fructose-6-phosphate, fructose-1,6-bisphosphate, dihydroxyacetone phosphate”.

On to `CC(=O)C(=O)O` [pyruvate], for which the “NADH oxidation at 340 nm” value in assay [4] was “The enzyme was confirmed to show pyruvate reducing activity”.

For the origin of these results see PMC3512521, “Synthetic metabolic engineering-a novel, simple technology for designing a chimeric metabolic pathway” (Microbial Cell Factories, 2012).
